Values quoted from earlier work, collected in paper PMC9474474, “Determination of pharmacokinetics and tissue distribution of a novel lutetium-labeled PSMA-targeted ligand, ^177Lu-DOTA-PSMA-GUL, in rats by using LC–MS/MS” (Scientific Reports, 2022).

Set-up: method as in PMID 26985056
Conditions: cited from earlier work

For `O=C([O-])CN1CCN(CC(=O)[O-])CCN(CC(=O)NCC2CCC(C(=O)N[C@@H](Cc3ccc4ccccc4c3)C(=O)NCCCC[C@H](NC(=O)N[C@@H](CCC(=O)O)C(=O)O)C(=O)O)CC2)CCN(CC(=O)[O-])CC1.[177Lu+3]` (some centres unmarked) [^177Lu-PSMA-617], the elimination half-life (humans, radioactivity study) is listed as 90 h and the eliminated by urine (patients with PSMA-positive tumor phenotype) is listed as “approximately 50%”.
